# Source: ChEMBL document CHEMBL3734705, “Synthesis and in vitro cytotoxicity of novel C-12 substituted-14-deoxy-andrographolide derivatives as potent anti-cancer agents” (2015)
# Tests used:
# [1] = Cytotoxicity against human Caki1 cells assessed as growth level at 10 uM after 48 hrs by SRB assay; format: functional, CAKI-1
# [2] = test system: SN12C; test: Cytotoxicity against human SN12C cells assessed as growth inhibition at 10 uM after 48 hrs by SRB assay; format: functional; conditions: read-out: GI
# [3] = Cytotoxicity against human HCC2998 cells assessed as growth inhibition at 10 uM after 48 hrs by SRB assay; format: functional; conditions: HCC 2998, 48 h, read-out: GI
# [4] = test system: NCI-H460; test: Cytotoxicity against human NCI-H460 cells assessed as growth level at 10 uM after 48 hrs by SRB assay; format: functional
# [5] = test system: MDA-MB-231; test: Cytotoxicity against human MDA-MB-231 cells assessed as growth inhibition at 10 uM after 48 hrs by SRB assay; format: functional; conditions: MDA-MB-231, 48 h, read-out: GI
# [6] = test system: A498; test: Cytotoxicity against human A498 cells assessed as growth level at 10 uM after 48 hrs by SRB assay; format: functional
# [7] = Cytotoxicity against human COLO205 cells assessed as growth inhibition at 10 uM after 48 hrs by SRB assay; format: functional; conditions: COLO 205, 48 h, read-out: GI
# [8] = Cytotoxicity against human HCT116 cells assessed as growth level at 10 uM after 48 hrs by SRB assay; format: functional, HCT-116
# [9] = Cytotoxicity against human RXF393 cells assessed as growth inhibition at 10 uM after 48 hrs by SRB assay; format: functional; conditions: RXF 393, 48 h, read-out: GI
# [10] = test system: ACHN; test: Cytotoxicity against human ACHN cells assessed as growth level at 10 uM after 48 hrs by SRB assay; format: functional
# [11] = test system: ACHN; test: Cytotoxicity against human ACHN cells assessed as growth inhibition at 10 uM after 48 hrs by SRB assay; format: functional; conditions: read-out: GI
# [12] = Cytotoxicity against human UACC62 cells assessed as growth level at 10 uM after 48 hrs by SRB assay; format: functional, UACC-62
# [13] = Cytotoxicity against human HCC2998 cells assessed as growth level at 10 uM after 48 hrs by SRB assay; format: functional, HCC 2998
# [14] = Cytotoxicity against human HL-60(TB) cells assessed as growth level at 10 uM after 48 hrs by SRB assay; format: functional
# [15] = Cytotoxicity against human SNB75 cells assessed as growth inhibition at 10 uM after 48 hrs by SRB assay; format: functional; conditions: SNB-75, 48 h, read-out: GI
# [16] = test system: NCI-H460; test: Cytotoxicity against human NCI-H460 cells assessed as growth inhibition at 10 uM after 48 hrs by SRB assay; format: functional; conditions: NCI-H460, 48 h, read-out: GI
# [17] = Cytotoxicity against human SF539 cells assessed as growth inhibition at 10 uM after 48 hrs by SRB assay; format: functional; conditions: SF-539, 48 h, read-out: GI
# [18] = Cytotoxicity against human HCT15 cells assessed as growth level at 10 uM after 48 hrs by SRB assay; format: functional, HCT-15
# [19] = Cytotoxicity against human PC3 cells assessed as growth level at 10 uM after 48 hrs by SRB assay; format: functional, PC-3
# [20] = Cytotoxicity against human IGROV1 cells assessed as growth level at 10 uM after 48 hrs by SRB assay; format: functional, IGROV-1
# [21] = test system: CCRF-CEM; test: Cytotoxicity against human CCRF-CEM cells assessed as growth level at 10 uM after 48 hrs by SRB assay; format: functional
# [22] = Cytotoxicity against human SKOV3 cells assessed as growth level at 10 uM after 48 hrs by SRB assay; format: functional, SK-OV-3
# [23] = test system: T47D; test: Cytotoxicity against human T47D cells assessed as growth level at 10 uM after 48 hrs by SRB assay; format: functional
# [24] = test system: NCI-H226; test: Cytotoxicity against human NCI-H226 cells assessed as growth inhibition at 10 uM after 48 hrs by SRB assay; format: functional; conditions: NCI-H226, 48 h, read-out: GI
# [25] = test system: SN12C; test: Cytotoxicity against human SN12C cells assessed as growth level at 10 uM after 48 hrs by SRB assay; format: functional
# [26] = Cytotoxicity against human NCI-ADR-RES cells assessed as growth inhibition at 10 uM after 48 hrs by SRB assay; format: functional; conditions: read-out: GI
# [27] = test system: U-251; test: Cytotoxicity against human U251 cells assessed as growth inhibition at 10 uM after 48 hrs by SRB assay; format: functional; conditions: U-251, 48 h, read-out: GI
# [28] = test system: M14; test: Cytotoxicity against human M14 cells assessed as growth inhibition at 10 uM after 48 hrs by SRB assay; format: functional; conditions: M14, 48 h, read-out: GI
# [29] = test system: M14; test: Cytotoxicity against human M14 cells assessed as growth level at 10 uM after 48 hrs by SRB assay; format: functional
# [30] = test system: SK-MEL-28; test: Cytotoxicity against human SK-MEL-28 cells assessed as growth level at 10 uM after 48 hrs by SRB assay; format: functional
# [31] = test system: MCF7; test: Cytotoxicity against human MCF7 cells assessed as growth level at 10 uM after 48 hrs by SRB assay; format: functional
# [32] = test system: NCI-H23; test: Cytotoxicity against human NCI-H23 cells assessed as growth level at 10 uM after 48 hrs by SRB assay; format: functional
# [33] = test system: A498; test: Cytotoxicity against human A498 cells assessed as growth inhibition at 10 uM after 48 hrs by SRB assay; format: functional; conditions: A498, 48 h, read-out: GI
# [34] = Cytotoxicity against human UACC62 cells assessed as growth inhibition at 10 uM after 48 hrs by SRB assay; format: functional; conditions: UACC-62, 48 h, read-out: GI
# [35] = Cytotoxicity against human UACC257 cells assessed as growth inhibition at 10 uM after 48 hrs by SRB assay; format: functional; conditions: UACC-257, 48 h, read-out: GI
# [36] = test system: MCF7; test: Cytotoxicity against human MCF7 cells assessed as growth inhibition at 10 uM after 48 hrs by SRB assay; format: functional; conditions: MCF7, 48 h, read-out: GI
# [37] = Cytotoxicity against human OVCAR4 cells assessed as growth inhibition at 10 uM after 48 hrs by SRB assay; format: functional; conditions: OVCAR-4, 48 h, read-out: GI
# [38] = test system: Malme-3M; test: Cytotoxicity against human MALME-3M cells assessed as growth inhibition at 10 uM after 48 hrs by SRB assay; format: functional; conditions: read-out: GI
# [39] = Cytotoxicity against human OVCAR8 cells assessed as growth inhibition at 10 uM after 48 hrs by SRB assay; format: functional; conditions: OVCAR-8, 48 h, read-out: GI
# [40] = test system: MDA-MB-231; test: Cytotoxicity against human MDA-MB-231 cells assessed as growth level at 10 uM after 48 hrs by SRB assay; format: functional
# [41] = Cytotoxicity against human SKOV3 cells assessed as growth inhibition at 10 uM after 48 hrs by SRB assay; format: functional; conditions: SK-OV-3, 48 h, read-out: GI
# [42] = Cytotoxicity against human SF268 cells assessed as growth level at 10 uM after 48 hrs by SRB assay; format: functional, SF-268
# [43] = Cytotoxicity against human DU145 cells assessed as growth inhibition at 10 uM after 48 hrs by SRB assay; format: functional; conditions: DU-145, 48 h, read-out: GI
# [44] = Cytotoxicity against human SF295 cells assessed as growth inhibition at 10 uM after 48 hrs by SRB assay; format: functional; conditions: SF-295, 48 h, read-out: GI
structure (smiles),measurement,setting,value
C=C1CC[C@@H]2[C@](C)(COC(C)=O)[C@H](OC(C)=O)CC[C@@]2(C)[C@@H]1CC(NCc1ccccc1)C1=CCOC1=O (mixture of isomers),Activity,[1],49.62%
same,inhibition of growth at 10 µM,[2],41.8%
same,inhibition of growth at 10 µM,[3],6.31%
same,Activity,[4],48.43%
same,inhibition of growth at 10 µM,[5],35.3%
same,Activity,[6],56.22%
same,inhibition of growth at 10 µM,[7],54.4%
same,Activity,[8],42.32%
same,inhibition of growth at 10 µM,[9],25.7%
same,Activity,[10],46.39%
same,inhibition of growth at 10 µM,[11],53.6%
same,Activity,[12],38.81%
same,Activity,[13],93.69%
same,Activity,[14],-9.93%
same,inhibition of growth at 10 µM,[15],23.1%
same,inhibition of growth at 10 µM,[16],51.6%
same,inhibition of growth at 10 µM,[17],20.5%
same,Activity,[18],40.99%
same,Activity,[19],10.07%
same,Activity,[20],62.9%
same,Activity,[21],20.9%
same,Activity,[22],79.25%
same,Activity,[23],14.23%
same,inhibition of growth at 10 µM,[24],88.6%
same,Activity,[25],58.19%
same,inhibition of growth at 10 µM,[26],76.5%
same,inhibition of growth at 10 µM,[27],52.4%
same,inhibition of growth at 10 µM,[28],57.9%
same,Activity,[29],42.07%
same,Activity,[30],68.59%
same,Activity,[31],29.82%
same,Activity,[32],57.36%
same,inhibition of growth at 10 µM,[33],43.8%
same,inhibition of growth at 10 µM,[34],61.2%
same,inhibition of growth at 10 µM,[35],67.2%
same,inhibition of growth at 10 µM,[36],70.2%
same,inhibition of growth at 10 µM,[37],64.1%
same,inhibition of growth at 10 µM,[38],22.9%
same,inhibition of growth at 10 µM,[39],71.8%
same,Activity,[40],64.69%
same,inhibition of growth at 10 µM,[41],20.8%
same,Activity,[42],62.15%
same,inhibition of growth at 10 µM,[43],32.8%
same,inhibition of growth at 10 µM,[44],36.1%
